Reference: PubChem BioAssay AID1259407 (Chemical Carcinogenesis Research Information System (CCRIS), 2018)
Active and inactive are the calls of the source. No rule for the calls is given here.

Test system: CCRIS mutagenicity, Ames/micronucleus/aberration tests
Experiment: CCRIS mutagenicity studies
[1] = Test System: AMES SALMONELLA TYPHIMURIUM, Strain/Indicator: TA98, Metabolic Activation: NONE, Method: STANDARD PLATE
[2] = Test System: AMES SALMONELLA TYPHIMURIUM, Strain/Indicator: TA100, Metabolic Activation: NONE, Method: STANDARD PLATE
[3] = Test System: AMES SALMONELLA TYPHIMURIUM, Strain/Indicator: TA102, Metabolic Activation: NONE, Method: STANDARD PLATE
[4] = Test System: AMES SALMONELLA TYPHIMURIUM, Strain/Indicator: TA1537, Metabolic Activation: NONE, Method: STANDARD PLATE
[5] = Test System: AMES SALMONELLA TYPHIMURIUM, Strain/Indicator: TA1538, Metabolic Activation: NONE, Method: STANDARD PLATE

Compound: CC(C)(C)NC(=O)[C@H]1CC[C@H]2[C@@H]3CC=C4C=C(C(=O)O)CC[C@]4(C)[C@H]3CC[C@]12C
- mutagenic call (Test System: AMES SALMONELLA TYPHIMURIUM, Strain/Indicator: TA97, Metabolic Activation: NONE, Method: STANDARD PLATE): inactive; negative
- mutagenic call (Test System: AMES SALMONELLA TYPHIMURIUM, Strain/Indicator: TA97, Metabolic Activation: RAT LIVER S-9, AROCLOR 1254, Method: PREINCUBATION): inactive; negative
- mutagenic call [1]: inactive; negative
- mutagenic call (Test System: AMES SALMONELLA TYPHIMURIUM, Strain/Indicator: TA98, Metabolic Activation: RAT LIVER S-9, AROCLOR 1254, Method: PREINCUBATION): inactive; negative
- mutagenic call [2]: inactive; negative
- mutagenic call (Test System: AMES SALMONELLA TYPHIMURIUM, Strain/Indicator: TA100, Metabolic Activation: RAT LIVER S-9, AROCLOR 1254, Method: PREINCUBATION): inactive; negative
- mutagenic call [3]: inactive; negative
- mutagenic call (Test System: AMES SALMONELLA TYPHIMURIUM, Strain/Indicator: TA102, Metabolic Activation: RAT LIVER S-9, AROCLOR 1254, Method: PREINCUBATION): inactive; negative

Compound: CCN(CCCl)c1ccc(CCCNc2c3ccccc3nc3ccccc23)cc1
- mutagenic call (Test System: AMES SALMONELLA TYPHIMURIUM, Strain/Indicator: DG1588, Metabolic Activation: NONE, Method: STANDARD PLATE): inactive; negative
- mutagenic call (Test System: AMES SALMONELLA TYPHIMURIUM, Strain/Indicator: DG1592, Metabolic Activation: NONE, Method: STANDARD PLATE): inactive; negative
- mutagenic call (Test System: AMES SALMONELLA TYPHIMURIUM, Strain/Indicator: DG1593, Metabolic Activation: NONE, Method: STANDARD PLATE): active; positive
- mutagenic call [1]: active; positive
- mutagenic call [2]: active; positive
- mutagenic call [3]: inactive; negative
- mutagenic call (Test System: AMES SALMONELLA TYPHIMURIUM, Strain/Indicator: TA104, Metabolic Activation: NONE, Method: STANDARD PLATE): active; positive
- mutagenic call (Test System: AMES SALMONELLA TYPHIMURIUM, Strain/Indicator: TA1535, Metabolic Activation: NONE, Method: STANDARD PLATE): inactive; negative
- mutagenic call (Test System: AMES SALMONELLA TYPHIMURIUM, Strain/Indicator: TA1537 (PKM101), Metabolic Activation: NONE, Method: STANDARD PLATE): active; positive
- mutagenic call [4]: active; positive
- mutagenic call [5]: inactive; negative
- mutagenic call (Test System: AMES SALMONELLA TYPHIMURIUM, Strain/Indicator: TA1975 (PKM101), Metabolic Activation: NONE, Method: STANDARD PLATE): inactive; negative
- mutagenic call (Test System: AMES SALMONELLA TYPHIMURIUM, Strain/Indicator: TA1975, Metabolic Activation: NONE, Method: STANDARD PLATE): inactive; negative
- mutagenic call (Test System: AMES SALMONELLA TYPHIMURIUM, Strain/Indicator: TA1977, Metabolic Activation: NONE, Method: STANDARD PLATE): active; positive
- mutagenic call (Test System: AMES SALMONELLA TYPHIMURIUM, Strain/Indicator: TA1978 (PKM101), Metabolic Activation: NONE, Method: STANDARD PLATE): active; positive
- mutagenic call (Test System: AMES SALMONELLA TYPHIMURIUM, Strain/Indicator: TA1978, Metabolic Activation: NONE, Method: STANDARD PLATE): inactive; negative
- mutagenic call (Test System: AMES SALMONELLA TYPHIMURIUM, Strain/Indicator: TA4001, Metabolic Activation: NONE, Method: STANDARD PLATE): active; positive
- mutagenic call (Test System: AMES SALMONELLA TYPHIMURIUM, Strain/Indicator: TA4006, Metabolic Activation: NONE, Method: STANDARD PLATE): active; positive

Compound: COC(COC(N)=O)C1=C(N2CC2)C(=O)C(C)=C(N2CC2)C1=O (stereo not drawn)
- mutagenic call [1]: active; positive
- mutagenic call [2]: active; positive
- mutagenic call [4]: active; positive
- mutagenic call (Test System: CHINESE HAMSTER V-79, Strain/Indicator: V-79/6-THIOGUANINE, Metabolic Activation: NONE, Method: FLASK ASSAY): active; positive
- mutagenic call (Test System: E. COLI, Strain/Indicator: WP2 (HCR), Metabolic Activation: NONE, Method: STANDARD PLATE): active; positive

Compound: CCCOc1cc(N=Nc2ccccc2)ccc1N=Nc1c(S(=O)(=O)O)cc2ccc(N)cc2c1O
- mutagenic call [1]: inactive; negative
- mutagenic call (Test System: AMES SALMONELLA TYPHIMURIUM, Strain/Indicator: TA98, Metabolic Activation: RAT, LIVER, S-9, AROCLOR 1254, Method: STANDARD PLATE): active; positive
- mutagenic call [2]: inactive; negative
- mutagenic call (Test System: AMES SALMONELLA TYPHIMURIUM, Strain/Indicator: TA100, Metabolic Activation: RAT, LIVER, S-9, AROCLOR 1254, Method: STANDARD PLATE): inactive; negative
- mutagenic call [5]: inactive; negative
- mutagenic call (Test System: AMES SALMONELLA TYPHIMURIUM, Strain/Indicator: TA1538, Metabolic Activation: RAT, LIVER, S-9, AROCLOR 1254, Method: STANDARD PLATE): active; positive

Compound: NCCCNCCSP(=O)(O)O
- mutagenic call (End Point: In vivo micronucleus, Test System: Bone marrow polychromatic erythrocytes, Species: Mouse, Strain/Sex: C57BL/6J/Male, Route: Intraperitoneal): inactive; negative (significant increase in pce/nce ratio only when administered before ga
